Common to all, as to assay: NCI anticancer screen, dose series, 48 h
The test system of assay [1] is XF 498 CNS.
Assay [2] relates to LXFL 529 NSCLC.
Assay [3] relates to KM20L2 colon.
Assay [4] relates to RXF-631 renal.
Assay [5] relates to DLD-1 colon.
In assay [6] the test system is T-47D breast.
Assay [7] has as its system MDA-N.

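Where inhibition never reached the appropriate level, the endpoint shown equals the highest concentration tested. Otherwise, values were interpolated linearly from a five-concentration, 48-hour dose response in 96-well plates. Here, GI50 denotes the concentration required for 50% inhibition of growth. Definition used: TGI = concentration required for complete inhibition of growth.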

Turning to `COc1ccc(/C=C2\C(=O)Nc3ccccc32)cc1OC`, the TGI in assay [1], in assay [2] and in assay [3] was above 100 µM in each case.
On to `CCCCN(CCCC)C(=O)C(=O)C(C(=O)C(=O)OC)c1nc2ccccc2o1` (stereo not drawn), for which the TGI in assay [1], in assay [2], in assay [4] and in assay [5] was above 100 µM throughout.
`O=C(CSc1nc2ccc([N+](=O)[O-])cc2[nH]1)Nc1ccc([N+](=O)[O-])cc1`: in assay [6], the GI50 is 1.59 µM and the TGI was 12.9 µM.
For `O=C(NCCCNc1cc(-c2cn(-c3ccccc3)nc2-c2cccc(O)c2)ccn1)c1ccc(F)cc1` the same measures were 1.14 µM and 5.11 µM.
Take `Cn1cnc([N+](=O)[O-])c1Sc1nccn1-c1ccccc1`: the TGI in assay [1], in assay [5] and in assay [3] was above 100 µM in each case.
As for `ClCCN(CCCl)c1ccc(OCc2ccccc2)cc1`, in assay [6], the GI50 was 4.4 µM and the TGI amounted to 28.7 µM.
As to `Nc1cc2c(c3ccccc13)C(CCl)CN2C(=O)c1cc2cc(NC(=O)c3cc4ccccc4o3)ccc2[nH]1` (stereo not drawn), the GI50 in assay [6] was above 0.11 µM.
On to `OCC(O)COc1ccc(F)cc1` (stereo not drawn), for which the TGI in assay [1], in assay [2], in assay [5] and in assay [3] was above 100 µM each time.
In the case of `COc1ncnn2ccc(-c3cnc4nc(C)n(Cc5nnc(C(C)F)o5)c4c3)c12` (stereo not drawn), in assay [6], the GI50 is 0.0853 µM and the TGI is above 100 µM.
As to `Cc1cc2c(=O)cc(-c3ccc(Cl)cc3Cl)oc2c(C(=O)O)c1C`, the TGI in assay [1], in assay [2], in assay [5] and in assay [3] was above 100 µM in each case.
As to `COC1OC(CO)C(O)C(NC(=O)N(C)N=O)C1O` (stereo not drawn), the TGI in assay [1], in assay [2], in assay [5] and in assay [3] was above 100 µM each time.
Consider `COc1cc(/C=C(\C)c2ccc3c(c2)OCO3)cc(OC)c1OC`, for which the TGI is 96 µM in assay [2], above 100 µM in assay [4], above 100 µM in assay [5] and above 100 µM in assay [3].
As for `NC(=S)N/N=C/c1cn(CCCl)c2ccccc12`, the TGI in assay [2] and in assay [5] was above 100 µM in each case.
In the case of `CC(=O)OC1C(COC(N)=O)OC(n2c(-c3ccc(C)cc3)cc(-c3ccccc3)c(C#N)c2=O)C(OC(C)=O)C1OC(C)=O` (stereo not drawn), the TGI in assay [2], in assay [4], in assay [5] and in assay [3] was above 100 µM each time.
As to `Cc1cc2c(=O)cc(-c3ccc(Cl)c(Cl)c3)oc2c(C(=O)O)c1C`, the TGI in assay [1], in assay [2], in assay [5] and in assay [3] was above 100 µM in each case.
With `CC(C)[C@]12O[C@H]1[C@@H]1O[C@]13[C@]1(O[C@H]1C[C@H]1C4=C(CC[C@@]13C)C(=O)OC4)[C@@H]2OC(=O)OC(C)(C)C`, in assay [6], the GI50 was 0.027 µM and the TGI is above 100 µM.
`COc1ccc(C(=O)O[C@@H]2CCN3CC[C@H](C)[C@H]23)cc1`: the TGI in assay [6] and in assay [7] was above 100 µM in each case.
With `COC(=O)C(=O)C(C(=O)C(=O)Nc1ccccc1C(N)=O)c1nc2ccc([N+](=O)[O-])cc2[nH]c1=O` (stereo not drawn), the TGI in assay [1], in assay [2], in assay [4], in assay [5] and in assay [3] was above 100 µM throughout.
Turning to `CC12OC(C(=O)C13CC3)C1C(=O)c3cccc(O)c3C(=O)C12` (stereo not drawn), in assay [6], the GI50 is 23.3 µM and the TGI is above 70.6 µM.
In the case of `CCOC(=O)c1c2c(n(Cc3ccccc3)c1C)-c1nc[nH]c1C(=O)C2=O`, in assay [6], the GI50 is 11.4 µM and the TGI was 30.7 µM.
With `C#CCOCCCC(=O)O`, the TGI in assay [6] and in assay [7] was above 100 µM in each case.
As for `Cc1cc2c(=O)cc(-c3ccc(C(=O)O)cc3)oc2c(C(N)=O)c1C`, the TGI in assay [2], in assay [4], in assay [5] and in assay [3] was above 100 µM each time.
Take `COc1cc2cc(Oc3ccc(NC(=O)Nc4ccc(F)c(C(F)(F)F)c4)cc3)c(C)nc2cc1OCCN1CCOCC1`: in assay [6], the GI50 was 1.91 µM and the TGI is 32.1 µM.
On the same counts, the results for `CC[n+]1c(/C=C/c2ccc(N3CCCC3)cc2)cccc1/C=C/c1ccc(N2CCCC2)cc1` are 0.0332 µM and 0.931 µM.
In the case of `Clc1ccc(Nc2ncnc3ccccc23)cc1`, in assay [6], the GI50 was 80 µM and the TGI is above 100 µM.
Take `CNC(=O)N(CCCC(NC(C)=O)C(=O)NCc1ccccc1)Cc1ccccc1` (stereo not drawn): the TGI in assay [1], in assay [2], in assay [5] and in assay [3] was above 100 µM throughout.
For the compound `C=CCC1=C2CCCCC2CCC1=O` (stereo not drawn), the TGI in assay [1], in assay [2], in assay [4] and in assay [5] was above 100 µM throughout.
For the compound `O=C1NC(=N[C@@H]2C[C@H]2c2ccccc2)S/C1=C\c1ccc2ncccc2c1`, in assay [6], the GI50 was 1.81 µM and the TGI was 13.8 µM.
Turning to `COc1ccc(-c2nc(Nc3ccc(F)cc3)nc(Nc3ccc4c(c3)nc(C)n4Cc3ccccc3)n2)cc1`, in assay [6], the GI50 is 2.42 µM and the TGI is 44.2 µM.
For `CCOC(=O)c1cc2c(OC)cc(OC)cc2oc1=O`, the TGI in assay [6] and in assay [7] was above 100 µM each time.
For `Cc1cc2c(=O)cc(-c3ccc(O)cc3)oc2c(C(=O)O)c1C`, the TGI in assay [1], in assay [2], in assay [5] and in assay [3] was above 100 µM throughout.

The values above are taken from PubChem BioAssay (NCI).
